Like-named read-outs stand apart in the source and are kept apart here. Some results are limits rather than exact numbers.

Data set [1] can be described thus: Solubility in DMSO and common organic solvents. The format is physicochemical. On the procedure:
Coordination of the axial ligands to the Pt center improved the solubility of the complexes in common organic solvents. DMSO solutions of the Pt(IV) complexes with concentrations of 10 mM or higher were obtainable, whereas the Pt(II) can only be made at the highest concentration of 5 mM.

Data set [2] relates to MCF-7 breast cancer cells. Description: MTS cell viability assay, MCF-7. The format is cell-based, human. The following applies: for EC50: read-out: EC50 (effective concentration that resulted in 50% cell viability). On the procedure:
(§1) Human breast (HCC38, MCF-7, MDA-MB-231, SK-BR-3, T-47D, and ZR-75-1), lung (A549 and H520), and prostate (DU145 and PC-3) cancer cell lines were obtained from American Culture Type Collection (ATCC). The HCC38, MCF-7, MDA-MB-231, SK-BR-3, T-47D, ZR-75-1, and A549 cells were grown in MEM supplemented with 10% FBS, 25 mM HEPES buffer (pH 7.4), penicillin (100 U/mL), and streptomycin (100 μg/mL). The H520, DU145, and PC-3 cell lines were grown in RPMI-1640 supplemented with 10% FBS, 25 mM HEPES buffer (pH 7.4), penicillin (100 U/mL), and streptomycin (100 μg/mL). All cell lines were maintained at 37° C. in a humidified, 5% CO2 atmosphere.
(§2) Cells were cultured at a density of 2-3.5×10^3 cells per well in flat bottomed 96-well plates in 100 μL of complete growth medium and incubated for 2 days to reach ˜50% confluence. The cells were then treated with solvent or the appropriate drugs (CDDP stock was dissolved in 0.15 M NaCl, carboplatin stock was dissolved in 5% glucose, synthesized Pt(IV) complexes were dissolved in DMSO) for 1 hour, washed three times with 100 μL PBS, and incubated in 100 μL of fresh medium. After 2 days, the medium was replaced with 120 μL of medium containing CellTiter 96® Aqueous One Solution Reagent (MTS reagent) (Promega, Madison, Wis.). The cells were incubated at 37° C. for 4 hours and the cell viability was determined by measuring the absorbance at 490 nm using a Tecan Infinite M1000 microplate reader. The 48 h treatment was done in a similar manner, except the cells were not washed after treatment and the MTS reagent was immediately added. Viability of treated groups was calculated as a percent of control and graphed with GraphPad Prism.
(§3) The anti-proliferative activities of Pt(IV) complexes were determined in two lung (A549 and H520), two prostate (DU145 and PC-3), and six breast (HCC38, MCF-7, MDA-MB-231, SK-BR-3, T-47D, and ZR-75-1) cancer cell lines. The cells were treated with increasing concentrations of cisplatin (CDDP), carboplatin, or the Pt(IV) complexes for 1 or 48 hours, and the viability was measured using an MTS colorimetric cell proliferation assay. Graphs of the results are shown for DU145 (FIG. 8A), PC-3 (FIG. 8B), SK-BR-3 (FIG. 8C), ZR-75-1 (FIG. 8D), A549 (FIG. 8E), and MCF-7 (FIG. 8F).
(Formazan colour is commonly taken as a measure of viable cells.)

Data set [3] relates to ZR-75-1 breast cancer cells. Briefly: MTS cell viability assay, ZR-75-1. Conditions: read-out: EC50 (effective concentration that resulted in 50% cell viability). The format is cell-based, human. On the procedure:
as §1, §2, §3

The test system of data set [4] is PC-3 prostate cancer cells. Description: MTS cell viability assay, PC-3. The format is cell-based, human. The following applies: read-out: EC50 (effective concentration that resulted in 50% cell viability). On the procedure: as §1, §2, §3
(§4) The anti-proliferative activities of certain Pt(II) complexes were determined in DU145, PC-3, and SK-BR-3 cells. The cells were treated with increasing concentrations of cisplatin (CDDP) or the Pt(II) complexes for 1 or 48 hours, and the viability was measured using an MTS colorimetric cell proliferation assay.

The next data set has as its system H520 lung cancer cells. Briefly: MTS cell viability assay, H520. The format is cell-based, human. The following applies: read-out: EC50 (effective concentration that resulted in 50% cell viability). The procedure:
as §1, §2, §3

For data set [5], the system named is T-47D breast cancer cells. Briefly: MTS cell viability assay, T-47D. The format is cell-based, human. On the procedure:
as §1, §2, §3

Data set [6] has as its system HCC38 breast cancer cells. Description: MTS cell viability assay, HCC38. The format is cell-based, human. The following applies: read-out: EC50 (effective concentration that resulted in 50% cell viability). The procedure:
as §1, §2, §3

Data set [7] concerns SK-BR-3 breast cancer cells. Briefly: MTS cell viability assay, SK-BR-3. The format is cell-based, human. The following applies: read-out: EC50 (effective concentration that resulted in 50% cell viability). The procedure:
as §1, §2, §3, §4

The test system of the next data set is A549 lung cancer cells. Briefly: MTS cell viability assay, A549. The format is cell-based, human. The following applies: for EC50: read-out: EC50 (effective concentration that resulted in 50% cell viability). On the procedure:
as §1, §2, §3

Data set [8] relates to DU145 prostate cancer cells. The format is cell-based, human. Conditions: for EC50: read-out: EC50 (effective concentration that resulted in 50% cell viability). On the procedure: as §1, §2, §3, §4
For data set [9], the system named is MDA-MB-231 breast cancer cells. Briefly: MTS cell viability assay, MDA-MB-231. The format is cell-based, human. Conditions: read-out: EC50 (effective concentration that resulted in 50% cell viability). On the procedure: as §1, §2, §3
Data set [10] can be described thus: Stability of stock solution in DMSO or ethanol. The following applies: stock solution made in DMSO or ethanol. The format is physicochemical. On the procedure: It should be noted that while the solubility of the Pt(IV) complexes in organic solvents were increased compared to their Pt(II) precursors, they were still poorly soluble in water. Thus, Pt(IV)-1C to Pt(IV)-3C were limited to a highest concentration of 100 μM. […] Testing of Pt(IV)4C therefore was limited to 25 μM.

Setting [11] is: ZR-75-1, 1 h treatment, Table 3.
Where [12] appears, read: 1 h treatment, Table 3, read-out: EC50 (effective concentration that resulted in 50% cell viability).
Setting [13] is: 48 h, Table 5, read-out: EC50 (effective concentration that resulted in 50% cell viability).
Where [14] appears, read: SK-BR-3, 1 h treatment, Table 3.
Setting [15] is: MDA-MB-231, 1 h treatment, Table 3.

With `CCCCCCCCOc1ccnc(-c2cc(OCCCCCCCC)ccn2)c1.[Cl][Pt][Cl]` [Pt(II)-8C], the “solubility in DMSO and other common organic solvents (in words)” value in data set [1] is on record as “poor solubility in DMSO”.

For the molecule “[Pt(IV)Cl2(OAc)2(4,4′-dihexyloxy-2,2′-bipyridine)] [Pt(IV)-6C]”, the EC50 in data set [2] (MCF-7, 1 h treatment, Table 3) worked out at 2.4 ± 0.1 µM; in data set [2] (MCF-7, 48 h, Table 5) it was 1.6 ± 0.2 µM; in [3] (setting [11]), 1.1 ± 0.4 µM; in [3] (ZR-75-1, 48 h, Table 5) it was 0.55 ± 0.04 µM; in [4] (PC-3, 1 h treatment, Table 3) it was 2 ± 0.3 µM; in data set [4] (PC-3, 48 h, Table 5), 0.33 ± 0.04 µM. In addition, the EC50 in the data set on H520 lung cancer cells (H520, 1 h treatment, Table 3) amounted to 2.1 ± 0.2 µM; with H520 lung cancer cells (H520, 48 h, Table 5) it was 1 ± 0.4 µM; in data set [5] (setting [12]) it was 2.1 ± 0.4 µM; in data set [5] (setting [13]), 0.24 ± 0.01 µM; in data set [6] (HCC38, 1 h treatment, Table 3) it was 2.3 ± 0.2 µM; in data set [6] (HCC38, 48 h, Table 5), 1.8 ± 0.5 µM. The EC50 in data set [7] (setting [14]) turned out to be 0.36 ± 0.02 µM; in data set [7] (SK-BR-3, 48 h, Table 5), 0.21 ± 0.03 µM; with A549 lung cancer cells (A549, 1 h treatment, Table 3) it was 2.5 ± 0.2 µM; in the data set with A549 lung cancer cells (A549, 48 h, Table 5) it was 2.2 ± 0.1 µM; in data set [8] (DU145, 1 h treatment, Table 3), 1.3 ± 0.2 µM; in data set [8] (DU145, 48 h, Table 5), 0.5 ± 0.3 µM. Besides, the EC50 in data set [9] (setting [15]) came out at 1.1 ± 0.2 µM; in [9] (MDA-MB-231, 48 h, Table 5) it was 0.31 ± 0.04 µM.

“[Pt(IV)Cl2(OAc)2(4,4′-dimethoxy-2,2′-bipyridine)] [Pt(IV)-1C]”: the EC50 is above 100 µM in data set [2] (MCF-7, 1 h treatment, Table 3); above 100 µM in [2] (MCF-7, 48 h, Table 5); above 100 µM in [3] (setting [11]); above 100 µM in data set [3] (ZR-75-1, 48 h, Table 5); above 100 µM in data set [4] (PC-3, 1 h treatment, Table 3); above 100 µM in data set [4] (PC-3, 48 h, Table 5). The EC50 was above 100 µM in the data set on H520 lung cancer cells (H520, 1 h treatment, Table 3); above 100 µM in the data set on H520 lung cancer cells (H520, 48 h, Table 5); above 100 µM in [5] (setting [12]); 32 ± 0.5 µM in data set [5] (setting [13]); above 100 µM in data set [6] (HCC38, 1 h treatment, Table 3); above 100 µM in data set [6] (HCC38, 48 h, Table 5). The EC50 in data set [7] (setting [14]) was above 100 µM; in data set [7] (SK-BR-3, 48 h, Table 5), 80 ± 20 µM; in the data set with A549 lung cancer cells (A549, 1 h treatment, Table 3), above 100 µM; in the data set with A549 lung cancer cells (A549, 48 h, Table 5), above 100 µM; in data set [8] (DU145, 1 h treatment, Table 3), above 100 µM; in [8] (DU145, 48 h, Table 5), 80 ± 20 µM. Also, the EC50 in data set [9] (setting [15]) was above 100 µM; in data set [9] (MDA-MB-231, 48 h, Table 5), above 100 µM. Besides, the “effect on cell viability (in words)” value is reported as “had no effect” in [2] (MCF-7, 48 hour treatment (FIG. 8F)); “had no effect” in the data set on A549 lung cancer cells (A549, 48 hour treatment (FIG. 8E)); “did not have any effects” in [8] (DU145, 1 hour treatment (FIG. 8A, top), up to 1 mM carboplatin, 100 μM Pt(IV)-1C, 50 μM Pt(IV)-2C); “more effective than carboplatin” in [8] (DU145, 48 hours treatment (FIG. 8A, bottom)).

Turning to “[Pt(IV)Cl2(OAc)2(4,4′-dioctyloxy-2,2′-bipyridine)] [Pt(IV)-8C]”, the EC50 in data set [2] (MCF-7, 1 h treatment, Table 3) was 4 ± 1 µM; in data set [2] (MCF-7, 48 h, Table 5), 1.3 ± 0.3 µM; in data set [3] (setting [11]), 3 ± 1 µM; in data set [3] (ZR-75-1, 48 h, Table 5), 1.3 ± 0.1 µM; in data set [4] (PC-3, 1 h treatment, Table 3), 1.2 ± 0.5 µM; in data set [4] (PC-3, 48 h, Table 5), 0.11 ± 0.02 µM. Also, the EC50 amounted to 7 ± 5 µM with H520 lung cancer cells (H520, 1 h treatment, Table 3); 1.2 ± 0.6 µM in the data set on H520 lung cancer cells (H520, 48 h, Table 5); 1.5 ± 0.5 µM in [5] (setting [12]); 0.25 µM in data set [5] (setting [13]); 3 ± 0.6 µM in [6] (HCC38, 1 h treatment, Table 3); 1.6 ± 0.3 µM in data set [6] (HCC38, 48 h, Table 5). Moreover, the EC50 is 0.33 ± 0.05 µM in data set [7] (setting [14]); 0.22 ± 0.03 µM in [7] (SK-BR-3, 48 h, Table 5); 7 ± 0.4 µM in the data set on A549 lung cancer cells (A549, 1 h treatment, Table 3); 3 ± 0.5 µM in the data set with A549 lung cancer cells (A549, 48 h, Table 5); 0.7 ± 0.3 µM in data set [8] (DU145, 1 h treatment, Table 3); 0.2 ± 0.1 µM in data set [8] (DU145, 48 h, Table 5). In addition, the EC50 in data set [9] (setting [15]) was 2.1 ± 0.2 µM; in data set [9] (MDA-MB-231, 48 h, Table 5), 0.9 ± 0.3 µM. In addition, in [10], the “stability of the structure in stock solution” value was “structure is stable”.

Values taken from patent US10316050B2, “PT (IV) complexes containing 4,4′-disubstituted-2,2′-bipyridyl and their use in cancer therapy” (THE BOARD OF REGENTS OF THE NEVADA SYSTEM OF HIGHER …, priority 2014, dated 2019).
